Measured values: patent publication US10653651B2, “Kit for treating cancer with low molecular weight components of aurin tricarboxylic acid complex” (Aurin Biotech Inc., priority 2014, dated 2020)

Columns and labels:
Format in all cases: cell-based, human
[1] = test system: VEGF; test: Western blot of VEGF expression and release by U251 cells; conditions: 10 μM, 1 day; for expression of vascular endothelial growth factor (VEGF) in U251 cells: cell extract; for release of VEGF into the extracellular milieu by U251 cells: supernatant
Procedure: (§1) Experiment 2 was designed to determine the effect of ATA, AQA, and AHA on the expression and release of Factor H and VEGF by U251 cells. Cells were grown in DMEM for 24 h at 37° C., after which ATA, AQA, or AHA was added to the medium at a final concentration of 10 μM and incubation carried out for a further 24 h. The medium was drawn off, and the cells washed with PBS. Lysis buffer was then added to the cells. Forty microliters of the cell lysate, or the supernatant media, were loaded onto 12% polyacrylamide gels and separated under non-reducing conditions (70 V, 3-6 h). Following SDS-PAGE, proteins were transferred to a PVDF membrane (Bio-RadTM, CA) at 30 mA for 2 h. The membranes were blocked with 5% milk in PBS-T (80 mM Na2HPO4, 20 mM NaH2PO4, 100 mM NaCl, 0.1% Tween 20, pH 7.4) for 1 h, and incubated overnight at 4° C. with primary antibodies for Factor H (CytotechTM, goat 1/1000) and for VEGF (MilliporeTM, rabbit 1/2000). The membranes were then washed 3 times with PBST. They were then treated with an appropriate horseradish peroxidase (HRP)-conjugated secondary antibody for 3 h at room temperature. The secondary antibodies were anti-rabbit IgG (P0448, DAKOTM, Mississauga, Ontario, CA, 1/2,000) and anti-goat IgG (A[…], MilliporeTM, Billerica, Ma, 1/3,000). The bands were visualized with an enhanced chemiluminescence system and exposure to photographic film (Hyperfilm ECLTM, AmershamTM Pharmacia Biotech, Little Chalfont, UK). For reprobing of membranes with an alternative antibody, the membranes were treated with 10 mL of stripping buffer (3 mL of 1 M Tris-HCl pH 6.7, 10 mL of 10% SDS, 347 μL of 14 M mercaptoethanol, and 36.5 mL deionized water) at 60° C. for 1 h. The membrane was then placed on a shaking incubator for 30 min to clear it of all bound antibodies. The stripped membrane was then treated with a different primary antibody as previously described.

[2] = test system: U251 cells; test: DNA laddering (apoptosis) in U251 cells; conditions: 10 μM, 1 day, agarose gel
Procedure: (§2) For determination of DNA laddering, which is indicative of DNA disintegration, cells were precipitated by centrifugation, washed, and lysed with […] Tris-HCl, 5 mM EDTA, and 3% Triton-X-100. The lysates were incubated at 37° C. for 1 h and then centrifuged at 12,000g for 10 min. They were treated with phenol/chloroform/isoamylalcohol (25:24:1) and chloroform/isoamylalcohol (24:1) twice each, and precipitated with 0.6 volume isopropyl alcohol and 0.1 volume 3 M sodium actate at −20° C. for 30 min. The precipitates were centrifuged at 12,000 g for 20 min, washed with 70% ethanol and dissolved with TE buffer containing 2 μg/mL bovine RNase. DNAs were electrophoresed in 10 μg/mL ethidium bromide containing 2% w/v agarose gel.

[3] = test system: VEGF; test: Western blot of VEGF expression and release by BxPC-3 cells; conditions: 10 μM, 1 day; for expression of vascular endothelial growth factor (VEGF) in BxPC-3 cells: cell extract; for release of VEGF into the extracellular milieu by BxPC-3 cells: supernatant
Procedure: as §1, with “described. Experiment 6 was designed to determine the effect of ATA, AQA, and AHA on the expression and release of Factor H and VEGF by BxPC-3 cells.” for “described.”

[4] = test system: Factor H; test: Western blot of Factor H expression in BxPC-3 cells; conditions: 10 μM, 1 day, cell extract
Procedure: as §1, with “The bands were visualized with an enhanced chemiluminescence system and exposure to photographic film (Hyperfilm ECLTM, AmershamTM Pharmacia Biotech, Little Chalfont, UK). For reprobing of membranes with an alternative antibody, the membranes were treated with 10 mL of stripping buffer (3 mL of 1 M Tris-HCl pH 6.7, 10 mL of 10% SDS, 347 μL of 14 M mercaptoethanol, and 36.5 mL deionized water) at 60° C. for 1 h. The membrane was then placed on a shaking incubator for 30 min to clear it of all bound antibodies. The stripped membrane was then treated with a different primary antibody as previously described.” left out

[5] = test system: A549 cells; test: DNA laddering (apoptosis) in A549 cells; conditions: 10 μM, 1 day, agarose gel
Procedure: as §2
The protocol was identical to that used in Experiment 7 except A549 cells were used.

Substance	expression of vascular endothelial growth factor (VEGF) in U251 cells [1]	release of VEGF into the extracellular milieu by U251 cells [1]	DNA fragmentation (180 bp laddering) in U251 cells [2]	expression of vascular endothelial growth factor (VEGF) in BxPC-3 cells [3]	release of VEGF into the extracellular milieu by BxPC-3 cells [3]	expression of Factor H in BxPC-3 cells [4]	DNA fragmentation (180 bp laddering) in A549 cells [5]
aurin hexacarboxylic acid [AHA]	reducing expression	reducing release	induced DNA fragmentation	reducing expression	reducing release	reducing expression	induced DNA fragmentation
aurin quadracarboxylic acid [AQA]	reducing expression	reducing release	induced DNA fragmentation	reducing expression	reducing release	reducing expression	induced DNA fragmentation
